Source: ChEMBL document CHEMBL1201862, “PubChem BioAssay data set” (2004)
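All cell lines were grown in 96-well plates and treated with compound for 48 hours. Here, GI50 denotes the concentration required for 50% inhibition of growth.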 Calls of active or inactive are those of the source. Cut-off read from the data, not from the text of the source: active = GI50 up to about 1.1 µM and inactive = higher.

What was measured:
Experiment in all cases: NCI-60 cell line screen, 48 h
[1] = tested on: U-251
[2] = tested on: SK-OV-3
[3] = tested on: SNB-75
[4] = tested on: NCI/ADR-RES
[5] = tested on: A549
[6] = tested on: MDA-MB-231
[7] = tested on: SF-295
[8] = tested on: M14
[9] = tested on: SK-MEL-28
[10] = tested on: IGROV-1
[11] = tested on: SNB-19
[12] = tested on: CCRF-CEM
[13] = tested on: RXF 393
[14] = tested on: HOP-62
[15] = tested on: NCI-H460
[16] = tested on: A498
[17] = tested on: DU-145
[18] = tested on: KM12
[19] = tested on: PC-3
[20] = tested on: SR
[21] = tested on: SF-268
[22] = tested on: EKVX
[23] = tested on: MDA-MB-435
[24] = tested on: HCT-116
[25] = tested on: RPMI-8226
[26] = tested on: MCF7
[27] = tested on: T47D
[28] = tested on: Malme-3M
[29] = tested on: TK-10
[30] = tested on: HT-29
[31] = tested on: OVCAR-4
[32] = tested on: HL-60
[33] = tested on: SK-MEL-5
[34] = tested on: UACC-257
[35] = tested on: MOLT-4
[36] = tested on: COLO 205
[37] = tested on: HCC 2998
[38] = tested on: K562
[39] = tested on: HCT-15
[40] = tested on: 786-0
[41] = tested on: NCI-H23
[42] = tested on: UACC-62
[43] = tested on: SN12C
[44] = tested on: LOX IMVI
[45] = tested on: OVCAR-5
[46] = tested on: ACHN
[47] = tested on: Hs-578T
[48] = tested on: SK-MEL-2
[49] = tested on: NCI-H226
[50] = tested on: UO-31
[51] = tested on: MDA-N
[52] = tested on: OVCAR-8
[53] = tested on: HOP-92
[54] = tested on: NCI-H522
[55] = tested on: CAKI-1
[56] = tested on: OVCAR-3
[57] = tested on: SF-539
[58] = tested on: SW-620

## C[C@@H](c1ccccc1)N1C[C@@H](c2ccc3c(c2)OCO3)[C@@H]2C(=O)CCC[C@@H]21
[1]
  GI50: 66.5 µM (inactive)
[2]
  GI50: > 100 µM (inactive)
[3]
  GI50: 36.4 µM (inactive)
[4]
  GI50: 81.7 µM (inactive)
[5]
  GI50: 57.9 µM (inactive)
[6]
  GI50: 63.8 µM (inactive)
[7]
  GI50: 79.3 µM (inactive)
[8]
  GI50: 19.5 µM (inactive)
[9]
  GI50: 28.6 µM (inactive)
[10]
  GI50: 41.1 µM (inactive)
[11]
  GI50: 75 µM (inactive)
[12]
  GI50: 61 µM (inactive)
[13]
  GI50: 88.5 µM (inactive)
[14]
  GI50: > 100 µM (inactive)
[15]
  GI50: 54.5 µM (inactive)
[16]
  GI50: 28.6 µM (inactive)
[17]
  GI50: > 100 µM (inactive)
[18]
  GI50: 97.9 µM (inactive)
[19]
  GI50: 59.2 µM (inactive)
[20]
  GI50: 42.8 µM (inactive)
[21]
  GI50: 96.8 µM (inactive)
[22]
  GI50: 69.3 µM (inactive)
[23]
  GI50: 67.8 µM (inactive)
[24]
  GI50: 43.8 µM (inactive)
[25]
  GI50: 38.1 µM (inactive)
[26]
  GI50: 27.8 µM (inactive)
[27]
  GI50: 37.3 µM (inactive)
[28]
  GI50: 31.3 µM (inactive)
[29]
  GI50: > 100 µM (inactive)
[30]
  GI50: 98.9 µM (inactive)
[31]
  GI50: 43.8 µM (inactive)
[32]
  GI50: 34.1 µM (inactive)
[33]
  GI50: 36.8 µM (inactive)
[34]
  GI50: 50.2 µM (inactive)
[35]
  GI50: 30.3 µM (inactive)
[36]
  GI50: 20.6 µM (inactive)
[37]
  GI50: 30.1 µM (inactive)
[38]
  GI50: 64.1 µM (inactive)
[39]
  GI50: 61.2 µM
[40]
  GI50: 75.2 µM (inactive)
[41]
  GI50: 61.8 µM (inactive)
[42]
  GI50: 25.5 µM (inactive)
[43]
  GI50: 59.8 µM (inactive)
[44]
  GI50: 69 µM (inactive)
[45]
  GI50: > 100 µM (inactive)
[46]
  GI50: 35.2 µM (inactive)
[47]
  GI50: 72.9 µM (inactive)
[48]
  GI50: 41 µM (inactive)
[49]
  GI50: > 100 µM (inactive)
[50]
  GI50: 83 µM (inactive)
[51]
  GI50: > 100 µM (inactive)
[52]
  GI50: > 100 µM (inactive)
[53]
  GI50: 47.1 µM (inactive)
[54]
  GI50: 42.5 µM (inactive)
[55]
  GI50: > 100 µM (inactive)

## C[N+](C)(CCO)CCN1c2ccccc2Sc2ccccc21
[1]
  GI50: > 10 µM (inactive)
[2]
  GI50: > 10 µM (inactive)
[3]
  GI50: > 10 µM (inactive)
[4]
  GI50: > 10 µM (inactive)
[5]
  GI50: > 10 µM (inactive)
[6]
  GI50: > 10 µM (inactive)
[7]
  GI50: > 10 µM (inactive)
[8]
  GI50: > 10 µM (inactive)
[9]
  GI50: > 10 µM (inactive)
[10]
  GI50: > 10 µM (inactive)
[11]
  GI50: > 10 µM (inactive)
[12]
  GI50: > 10 µM (inactive)
[13]
  GI50: > 10 µM (inactive)
[14]
  GI50: > 10 µM (inactive)
[15]
  GI50: > 10 µM (inactive)
[16]
  GI50: > 10 µM (inactive)
[17]
  GI50: > 10 µM (inactive)
[18]
  GI50: > 10 µM (inactive)
[19]
  GI50: > 10 µM (inactive)
[20]
  GI50: > 10 µM (inactive)
[21]
  GI50: > 10 µM (inactive)
[22]
  GI50: > 10 µM (inactive)
[23]
  GI50: > 10 µM (inactive)
[56]
  GI50: > 10 µM (inactive)
[24]
  GI50: > 10 µM (inactive)
[25]
  GI50: > 10 µM (inactive)
[26]
  GI50: > 10 µM (inactive)
[27]
  GI50: > 10 µM (inactive)
[28]
  GI50: > 10 µM (inactive)
[29]
  GI50: > 10 µM (inactive)
[57]
  GI50: > 10 µM (inactive)
[30]
  GI50: > 10 µM (inactive)
[31]
  GI50: > 10 µM (inactive)
[32]
  GI50: > 10 µM (inactive)
[33]
  GI50: > 10 µM (inactive)
[58]
  GI50: > 10 µM (inactive)
[35]
  GI50: > 10 µM (inactive)
[36]
  GI50: > 10 µM (inactive)
[37]
  GI50: > 10 µM (inactive)
[38]
  GI50: > 10 µM (inactive)
[39]
  GI50: > 10 µM
[41]
  GI50: > 10 µM (inactive)
[42]
  GI50: > 10 µM (inactive)
[43]
  GI50: > 10 µM (inactive)
[44]
  GI50: > 10 µM (inactive)
[45]
  GI50: > 10 µM (inactive)
[46]
  GI50: > 10 µM (inactive)
[47]
  GI50: > 10 µM (inactive)
[48]
  GI50: > 10 µM (inactive)
[49]
  GI50: > 10 µM (inactive)
[50]
  GI50: 3.52 µM (inactive)
[51]
  GI50: > 10 µM (inactive)
[52]
  GI50: > 10 µM (inactive)
[54]
  GI50: > 10 µM (inactive)
[55]
  GI50: > 10 µM (inactive)
